From patent US9180160B2, “Complement inhibitors for treatment of injury from intracerebral hemorrhage” (The Trustees of the University of Pennsylvania, priority 2008, dated 2015) come the findings set out here.

Common to all, as to assay type: in vivo
The subject of experiment [1] is C57BL/6J mice subjected to ICH. Put plainly: 28-point neurological function score after ICH (autologous blood infusion). Here is the method: (§1) Animal Preparation and Intracerebral Infusion. Adult male C57BL/6J mice weighing 23-30 g were used. Mice were randomized to receive intraperitoneal injection of either C3aRA (1 mg/kg) (SB290157, Calbiochem, Darmstadt, Germany) diluted in PBS and DMSO (1.16% v/v), or an equal volume of vehicle (PBS and DMSO, 1.16% DMSO v/v) either 45 minutes prior to ICH induction or 6 and 12 hours after induction of ICH, followed in both cohorts by twice daily doses for 72 hours. […] Sham animals were given PBS and DMSO (1.16% v/v) in the same manner.
(§2) Mice were anesthetized with a single intraperitoneal dose of ketamine (90 mg/kg) and xylazine (5 mg/kg). Next, the mice were placed in a stereotactic frame (ASI Instruments, Inc., Warren, Mich., USA) and subjected to ICH using autologous blood infusion as previously described (Rynkowski M A et al, 2008, Nat Protoc 3: 122-128), Briefly, a 1-mm burr hole was drilled 2.3 mm lateral to the midline and 0.2 mm anterior to the bregma. Thirty μL of autologous whole blood were drawn from the tail artery into a capillary tube. A 30-gauge needle was then advanced stereotactically through the burr hole into the right striatum (coordinates: 0.2 mm anterior, 2.3 mm lateral to the bregma, 3.5 mm ventral). Using a microinfusion pump (KDS220, KD Scientific Inc., Holliston, Mass., USA), 5 μL was delivered at a rate of 1.5 μL per minute. After a 7-minute period, an additional 25 μL was delivered at a constant rate of 1.5 μL per minute. […]
(§3) Neurofunction and behavioral testing. Sensorimotor function was evaluated by means of the 28-point neurological function score, corner test and forelimb placing tests, which were performed pre-operatively and at 6, 24, 48 and 72 hour post-injury. Navigational memory was evaluated with the means of a Morris water-maze (MWM) test pre-operatively and at 72 hours post ICH. […]
Neurological function. Acute neurological deficits were assessed using a 28-point scoring system including body symmetry, gait, climbing, circling behavior, front limb symmetry, compulsory circling and whisker response. […]

For experiment [2], the system named is C57BL/6J mice subjected to ICH. The experiment can be described thus: Corner turn test (laterality index) after ICH. To be noted: for corner turn test (laterality index): 1 mg/kg i.p. first at 6 h and 12 h after ICH, then twice daily for 72 hours, versus vehicle. Here is the method: as §1
as §2, with “ventral).” for “ventral). Using a microinfusion pump (KDS220, KD Scientific Inc., Holliston, Mass., USA), 5 μL was delivered at a rate of 1.5 μL per minute. After a 7-minute period, an additional 25 μL was delivered at a constant rate of 1.5 μL per minute.”
as §3
Corner test. […] The number of right and left turns out of 10 total attempts was recorded. The laterality index (LI) and normalized LI were calculated. The laterality index (LI) was calculated for each mouse, according to the formula: LI=(Number of right turns—Number of left turns)/(Total number of turns). The LI for the day before surgery (LIBS) and each of the post surgery days was calculated and normalized using the formula: Normalized LI=(LI+2)/(LIBS+2). […]

Experiment [3] has as its system model of focal ischemic stroke. The experiment can be described thus: Dose-response trial in a model of focal ischemic stroke. To be noted: comparing 0.1, 0.5, 1 and 5 mg/kg.
The test system of experiment [4] is C57BL/6J mice subjected to ICH. Put plainly: Histopathology, hematoma (lesion) volume after ICH. To be noted: 1 mg/kg i.p. 45 minutes prior to ICH, then twice daily; 72 hours after ICH; mean±SEM. Here is the method: as §1
Mice were anesthetized with a single intraperitoneal dose of ketamine (90 mg/kg) and xylazine (5 mg/kg). Next, the mice were placed in a stereotactic frame (ASI Instruments, Inc., Warren, Mich., USA) and subjected to ICH using autologous blood infusion as previously described (Rynkowski M A et al, 2008, Nat Protoc 3: 122-128), Briefly, a 1-mm burr hole was drilled 2.3 mm lateral to the midline and 0.2 mm anterior to the bregma. Thirty μL of autologous whole blood were drawn from the tail artery into a capillary tube. […]
Histopathology and determination of lesion volume. […] Striatal lesion volume was determined by digitizing serial coronal sections ([…]) to span the entire hematoma. […] Volume of the lesion (mm^3) was then determined by summation of the lesion area in each coronal section and integrating over the section depth of 0.5 mm.

Where [5] appears, read: 1 mg/kg i.p. first at 6 h and 12 h after ICH, then twice daily for 72 hours, versus vehicle.
[6] abbreviates: 1 mg/kg i.p. 45 minutes prior to ICH, then twice daily, 72 hours after ICH.

Entries after “also recorded” stand apart in the source; their conditions may differ.

With “Acetyl-Phe-[Orn-Pro-D-cyclohexylalanine-Trp-Arg] [C5aRA]”, in experiment [1] (setting [5]), the 28-point neurological score entry was “significant improvement at 24, 48 and 72 hours”. Also, the “corner turn test (laterality index)” value in experiment [2] was “significant improvement at 48 hours”.
In turn, `NC(N)=NCCC[C@H](NC(=O)COCC(c1ccccc1)c1ccccc1)C(=O)O` [C3aRA] gave a most effective dose in experiment [3] of 1 mg/kg. In experiment [4], this compound came in with a mean hematoma volume of 12.17±1.33 mm^3. The 28-point neurological score result was “no significant deficits compared with sham animals” in experiment [1] (setting [6]); “significant improvement at 24, 48, and 72 hours; also recorded: significant improvement at 24, 48 and 72 hours” in experiment [1] (setting [5]). The “corner test performance (normalized laterality index)” value in experiment [2] (setting [6]) was “no significant deficits compared with sham animals”. The “corner turn test (laterality index)” value in experiment [2] is listed as “significant improvement at 48 hours”.
